Test results: patent US8349880B2, “Bicyclic compounds for the reduction of beta-amyloid production” (Bristol-Myers Squibb Company, priority 2009, dated 2013)
Read-outs that look alike come from different tables or passages of the source.

System: Aβ1-42 production
Test: Cellular assay for inhibition of Aβ1-42 production (H4 APP751 SWE clone 8.20)
Assay type: cell-based
Settings: H4 APP751 SWE clone 8.20 cells, 19 h incubation
Protocol: Cellular assays for inhibition of Aβ1-40 and Aβ1-42 production
H4 cells stably transfected with APP751 containing the Swedish mutation (H4 APP751 SWE clone 8.20, developed at BMS) were maintained in log phase through twice weekly passage at a 1:20 split. For IC50 determinations, 30 μl cells (1.5×10^4 cells/well) in DMEM media containing 0.0125% BSA (Sigma A8412) were plated directly into 384-well compound plates (Costar 3709) containing 0.1 μl serially diluted compound in DMSO. Following incubation for 19 h in 5% CO2 at 37° C., plates were briefly centrifuged (1000 rpm, 5 min). A 10 μl aliquot from each well was transferred to a second assay plate (Costar 3709) for Aβ40 measurements. Antibody cocktails were freshly prepared by dilution into 40 mM Tris-HCl (pH 7.4) with 0.2% BSA and added to assay plates. For Aβ42 measurements, antibodies specific for the Aβ42 neoepitope (565, developed at BMS; conjugated to the Wallac reagent (Perkin Elmer)) and the N-terminal sequence of Aβ peptide (26D6, developed at SIBIA; conjugated to APC (Perkin Elmer)) were mixed and 20 μl of the mixture was added to each well of the incubated cell plate yielding a final concentration of 0.8 ng/well 565 and 75 ng/well 26D6. For the Aβ40 measurements, antibodies specific for the Aβ40 neoepitope (TSD, developed at BMS; conjugated to the Wallac reagent (Perkin Elmer)) and 26D6 as described above were mixed and 20 μl of the mixture was added to the 10 μl aliquots which had been removed previously from the cell plate yielding a final concentration of 1.6 ng/well TSD and 17.5 ng/well 26D6. Assay plates containing antibodies were sealed with aluminum foil and incubated overnight at 4° C. Signal was determined using a Viewlux counter (Perkin Elmer) and IC50 values determined using curve fitting in CurveMaster (Excel Fit based).

[1] = 19 h, read-out: Activity Rating (Aβ42 cellular IC50, given as a number)
[2] = 19 h, read-out: Activity Rating (based on Aβ42 cellular IC50 values)

IC50 [2] | SMILES | further results
< 0.01 µM | COc1cc(Nc2nc3n(n2)CCCC[C@H]3c2ccc(F)cc2F)ccc1-n1cnc(Cl)c1 (single isomer, unassigned) [Example 36] | 
< 0.01 µM | COc1cc(Nc2nc3n(n2)CCCC[C@@H]3c2ccc(F)cc2F)ccc1-n1cnc(Cl)c1 (single isomer, unassigned) [Example 37] | 
< 0.01 µM | COc1cc(Nc2nc3n(n2)CCCC[C@H]3c2cc(F)cc(F)c2)ccc1-n1cnc(Cl)c1 (single isomer, unassigned) [Example 39] | 
0.01 to 0.1 µM | COc1cc(Nc2nc3n(n2)CCCC[C@@H]3c2cc(F)cc(F)c2)ccc1-n1cnc(Cl)c1 (single isomer, unassigned) [Example 40] | 
< 0.01 µM | COc1cc(Nc2nc3n(n2)CCCC[C@H]3c2cccc(F)c2)ccc1-n1cnc(Cl)c1 (single isomer, unassigned) [Example 45] | 
0.01 to 0.1 µM | COc1cc(Nc2nc3n(n2)CCCC[C@@H]3c2cccc(F)c2)ccc1-n1cnc(Cl)c1 (single isomer, unassigned) [Example 46] | 
< 0.01 µM | COc1cc(Nc2nc3n(n2)CCCC[C@@H]3c2cc(F)c(F)c(F)c2)ccc1-n1cnc(Cl)c1 (single isomer, unassigned) [Example 52] | 
< 0.01 µM | COc1cc(Nc2nc3n(n2)CCCC[C@H]3c2ccc(F)cc2)ccc1-n1cnc(Cl)n1 (single isomer, unassigned) [Example 87] | 
0.01 to 0.1 µM | COc1cc(Nc2nc3n(n2)CCCC[C@@H]3c2ccc(F)cc2)ccc1-n1cnc(Cl)n1 (single isomer, unassigned) [Example 88] | 
0.01 to 0.1 µM | Cc1ncnn1-c1ccc(Nc2nc3n(n2)CCCC[C@H]3c2ccc(F)cc2)cc1F (single isomer, unassigned) [Example 94] | 
0.01 to 0.1 µM | Cc1ncn(-c2ccc(Nc3nc4n(n3)CCCC[C@@H]4c3ccc(OC(F)(F)F)cc3)cc2F)n1 (single isomer, unassigned) [Example 98] | 
< 0.01 µM | COc1cc(Nc2nc3n(n2)CCCC[C@H]3c2ccc(OC(C)C)cc2)ccc1-n1cnc(Cl)c1 (single isomer, unassigned) [Example 103] | 
0.01 to 0.1 µM | COc1cc(Nc2nc3n(n2)CCCC[C@@H]3c2ccc(OC(C)C)cc2)ccc1-n1cnc(Cl)c1 (single isomer, unassigned) [Example 104] | 
0.01 to 0.1 µM | COc1cc(Nc2nc3n(n2)CCCC[C@@H]3c2ccc(OCC(F)(F)F)cc2)ccc1-n1cnc(Cl)c1 (single isomer, unassigned) [Example 107] | 
0.01 to 0.1 µM | Cc1ncn(-c2ccc(Nc3nc4n(n3)CCCC[C@H]4c3ccc(OCC(F)(F)F)cc3)cc2F)n1 (single isomer, unassigned) [Example 114] | 
0.01 to 0.1 µM | Cc1ncn(-c2ccc(Nc3nc4n(n3)CCCC[C@@H]4c3ccc(OCC(F)(F)F)cc3)cc2F)n1 (single isomer, unassigned) [Example 115] | 
0.1 to 1 µM | Cc1ncn(-c2ccc(Nc3nc4n(n3)CCC[C@H]4c3ccc(OC(F)(F)F)cc3)cc2F)n1 (single isomer, unassigned) [Example 123] | 
0.01 to 0.1 µM | Cc1ncn(-c2ccc(Nc3nc4n(n3)CCC[C@@H]4c3ccc(OC(F)(F)F)cc3)cc2F)n1 (single isomer, unassigned) [Example 124] | 
< 0.01 µM | COc1cc(Nc2nc3n(n2)CCCC[C@@H]3c2ccc(OC(F)(F)F)cc2)ccc1-n1cnc(Cl)c1 (single isomer, unassigned) [Example 125] | 

The next lines start with the compound.

SMILES | IC50 [2] | further results
COc1cc(Nc2nc3n(n2)CCCC[C@@H]3c2ccc(F)cc2)c(F)cc1-n1cnc(C)n1 (single isomer, unassigned) [Example 30] |  | IC50 [1]: 0.047 µM
COc1cc(Nc2nc3n(n2)CCCC[C@H]3c2cc(F)c(F)c(F)c2)ccc1-n1cnc(Cl)c1 (single isomer, unassigned) [Example 51] |  | IC50 [1]: 0.004 µM
COc1cc(Nc2nc3n(n2)CCCC[C@H]3c2cccc(Cl)c2)ccc1-n1cnc(Cl)c1 (single isomer, unassigned) [Example 54] | < 0.01 µM | 
COc1cc(Nc2nc3n(n2)CCCC[C@@H]3c2cccc(Cl)c2)ccc1-n1cnc(Cl)c1 (single isomer, unassigned) [Example 55] | < 0.01 µM | 
COc1cc(Nc2nc3n(n2)CCCC[C@H]3c2ccccc2F)ccc1-n1cnc(Cl)c1 (single isomer, unassigned) [Example 58] | < 0.01 µM | 
COc1cc(Nc2nc3n(n2)CCCC[C@@H]3c2ccccc2F)ccc1-n1cnc(Cl)c1 (single isomer, unassigned) [Example 59] | < 0.01 µM | 
COc1cc(Nc2nc3c(s2)CCC[C@H]3c2ccccc2)ccc1-n1cnc(Cl)c1 (single isomer, unassigned) [Example 69] | 0.01 to 0.1 µM | 
COc1cc(Nc2nc3c(s2)CCC[C@@H]3c2ccccc2)ccc1-n1cnc(Cl)c1 (single isomer, unassigned) [Example 70] | 0.1 to 1 µM | 
Cc1ncn(-c2ccc(Nc3nc4n(n3)CCCC[C@H]4c3ccc(OC(F)(F)F)cc3)cc2F)n1 (single isomer, unassigned) [Example 97] |  | IC50 [1]: 0.009 µM
Cc1ncnn1-c1ccc(Nc2nc3n(n2)CCCC[C@H]3c2ccc(OC(F)(F)F)cc2)cc1F (single isomer, unassigned) [Example 100] | < 0.01 µM | 
Cc1ncnn1-c1ccc(Nc2nc3n(n2)CCCC[C@@H]3c2ccc(OC(F)(F)F)cc2)cc1F (single isomer, unassigned) [Example 101] | 0.01 to 0.1 µM | 
COc1cc(Nc2nc3n(n2)CCCC[C@H]3c2ccc(OCC(F)(F)F)cc2)ccc1-n1cnc(Cl)c1 (single isomer, unassigned) [Example 106] |  | IC50 [1]: 0.005 µM
Cc1ncnn1-c1ccc(Nc2nc3n(n2)CCCC[C@H]3c2ccc(OCC(F)(F)F)cc2)cc1F (single isomer, unassigned) [Example 111] | < 0.01 µM | 
Cc1ncnn1-c1ccc(Nc2nc3n(n2)CCCC[C@@H]3c2ccc(OCC(F)(F)F)cc2)cc1F (single isomer, unassigned) [Example 112] | 0.01 to 0.1 µM | 
COc1cc(Nc2nc3n(n2)CCCC[C@@H]3c2ccc(OCC(F)(F)F)cc2)c(F)cc1-n1cnc(C)n1 (single isomer, unassigned) [Example 118] |  | IC50 [1]: 0.107 µM
Cc1ncnn1-c1ccc(Nc2nc3n(n2)CCCC[C@H]3c2ccc(OCC(F)F)cc2)cc1F (single isomer, unassigned) [Example 120] | 0.01 to 0.1 µM | 
Cc1ncnn1-c1ccc(Nc2nc3n(n2)CCCC[C@@H]3c2ccc(OCC(F)F)cc2)cc1F (single isomer, unassigned) [Example 121] | 0.1 to 1 µM | 
COc1cc(Nc2nc3n(n2)CCCC[C@@H]3c2ccc(OC(F)(F)F)cc2)ccc1-n1cnc(Cl)c1 (single isomer, unassigned) [Example 126] |  | IC50 (read-out: Activity Rating (based on Aβ42 cellular IC50 values)): 0.01 to 0.1 µM
C=C1CCn2nc(Nc3ccc(-n4cnc(Cl)c4)c(OC)c3)nc2[C@H](c2ccc(F)cc2)C1 (single isomer, unassigned) [Example 134] |  | IC50 [1]: 0.003 µM
C=C1CCn2nc(Nc3ccc(-n4cnc(Cl)c4)c(OC)c3)nc2[C@@H](c2ccc(F)cc2)C1 (single isomer, unassigned) [Example 135] | 0.01 to 0.1 µM | 
COc1cc(Nc2nc3n(n2)CC[C@@](C)(O)C[C@@H]3c2ccc(F)cc2)ccc1-n1cnc(Cl)c1 (single isomer, unassigned) [Example 148] | < 0.01 µM | 
COc1cc(Nc2nc3n(n2)CC[C@](C)(O)C[C@@H]3c2ccc(F)cc2)ccc1-n1cnc(Cl)c1 (single isomer, unassigned) [Example 149, 2,2,2-trifluoroacetate] |  | IC50 [1]: 0.002 µM
